From patent publication US20250353867A1, “Substituted Pyridine-2,6-Bis(Phenylenephenolate) Complexes with Enhanced Solubility that are Useful as Catalyst Components for Olefin Polymerization” (EXXONMOBIL CHEMICAL PATENTS INC., priority 2022, published 2025)
“And” between values parts separate entries of the source, which are not always exact repeats. Equal values may be shown once.

Key:
[1] = Solubility of complexes in isohexane at room temperature; assay type: physicochemical; settings: room temperature (20° C.-25° C.); for Solubility in isohexane: cocrystallized solvent included in formula weight; for Solubility in isohexane (wt %): cocrystallized solvent included in mass
Description: General considerations: Solubility studies were performed using complexes that were isolated as crystalline or microcrystalline solids. […] Complex 3, embodying the present technological advancement, was cocrystallized with 0.6 equivalents of isohexane. Complex 4, embodying the present technological advancement, was cocrystallized with 0.5 equivalents of isohexane. Solvents used were sparged with nitrogen (30-60 minutes) and dried over 3 angstrom molecular sieves. Unless stated otherwise all measurements were performed at ambient temperature (20° C.-25° C.).
General procedure: A tared vial was loaded with a small amount of the complex (actual mass recorded, typically 5-30 mg). Then a small stir bar (8 mm) was added. Solvent was then added and the mixture was stirred rapidly (1000 rpm). […] This process was repeated until either a clear solution was obtained (no visible solids or murkiness) or the vial was full. As the mixture approached homogeneity (i.e., few remaining solids observed) the volume of the solvent additions was kept small (<1 mL) to minimize the overshooting of the solvent required to achieve homogeneity. The stir bar was then removed and the mass of the mixture was measured. If a clear solution had formed then the solubility of the complex was calculated based on the mass of complex and the amount of solvent added to achieve a homogeneous solution. If the mixture remained heterogeneous (visible solids or murky), then the value reported is given as being “less than” the calculated value. Formulas used to calculate solubility are listed below. Cocrystallized solvent is included in the mass and formula weights of the complexes. The density of isohexane used in the calculations was 0.672 g/ml, and the density of the complex was assumed to be 1.0 g/ml.
Solubility (in wt %)=[100]*[(weight of complex)/(weight of solution)]
Solubility (in mM)=[10^6]*[(grams of complex)/(formula wt. of complex in g/mol)]/[(grams of solvent)/(density of solvent in g/mL)]

[2] = Propylene polymerization, catalyst activity
From the text: Solutions of the pre-catalysts were made using toluene (ExxonMobil Chemical-anhydrous, stored under N2) (98%) or isohexane (ExxonMobil Chemical—polymerization grade, and purified as described below). Pre-catalyst solutions were typically 0.25 mmol/L.
Activation of the pre-catalysts was either by dimethylanilinium tetrakisperfluorophenylborate (Boulder Scientific or Albemarle Corp; Act ID=A) or (hydrogenated tallow alkyl)methylammonium tetrakis(pentafluorophenyl)borate supplied as a 10 wt % solution in methylcyclohexane (Boulder Scientific; Act ID=B). Activators were typically used as a 0.25 mmol/L solution in toluene or isohexane.
Tri-n-octylaluminum (TnOAl or TNOA, Neat, AkzoNobel) was also used as a scavenger prior to introduction of the activator and pre-catalyst into the reactor. TNOA was typically used as a 5 mmol/L solution in toluene or isohexane.
Polymerizations were conducted in an inert atmosphere (N2) drybox using autoclaves equipped with an external heater for temperature control, glass inserts (internal volume of 22.5 mL), septum inlets, regulated supply of nitrogen and propylene, and equipped with disposable PEEK mechanical stirrers (800 RPM). The autoclaves were prepared by purging with dry nitrogen at 110° C. or 115° C. for 5 hours and then at 25° C. for 5 hours.
The reactor was prepared as described above, then heated to 40° C., and then purged with propylene gas at atmospheric pressure. Toluene or isohexanes, liquid propylene (1.0 mL) and scavenger (TNOA, 0.5 μmol) were added via syringe. The reactor was then brought to process temperature (70° C. or 100° C.) while stirring at 800 RPM. The activator solution, followed by the pre-catalyst solution, were injected via syringe to the reactor at process conditions. Reactor temperature was monitored and typically maintained within +/−1° C. Polymerizations were halted by addition of approximately 50 psi compressed dry air gas mixture to the autoclaves for approximately 30 seconds. The polymerizations were quenched based on a predetermined pressure loss (maximum quench value) or for a maximum of 30 minutes. The reactors were cooled and vented. The polymers were isolated after the solvent was removed in-vacuo. The actual quench time (s) is reported as quench time (s). Yields reported include total weight of polymer and residual catalyst. […] Propylene homopolymerization examples are reported in Table 2 with additional characterization in Table 3.
Polymerization results are collected in Tables 2. “Ex #” stands for example number. Example numbers starting with a “C” are comparative examples. “Cat ID” identifies the pre-catalyst used in the experiment. Corresponding numbers identifying the pre-catalyst (also referred to as pre-catalyst, catalyst, complex or compound) are located in the synthetic experimental section. T (° C.) is the polymerization temperature which was typically maintained within +/−1° C. “Yield” is polymer yield, and is not corrected for catalyst residue. “Quench time (s)” is the actual duration of the polymerization run in seconds. For propylene homopolymerization runs, quench value indicates the maximum set pressure loss (conversion) of propylene during the polymerization. Activity is reported at grams polymer per mmol of catalyst per hour.
Activator A is N,N-dimethylanilinium tetrakis(pentafluorophenyl)borate activator and activator B is (hydrogenated tallow alkyl)methylammonium tetrakis(pentafluorophenyl)borate. When activator A was used, both the pre-catalyst and activator solutions were in toluene. When activator B was used, both pre-catalyst and activator solutions were in isohexane. Small amounts of methylcyclohexane (MCH) result from activator B being supplied by the manufacturer as a 10 wt % solution in methylcyclohexane.

[3] = Activator B ((hydrogenated tallow alkyl)methylammonium tetrakis(pentafluorophenyl)borate), T 100 °C, solutions in isohexane, no toluene
[4] = Activator B ((hydrogenated tallow alkyl)methylammonium tetrakis(pentafluorophenyl)borate), T 70 °C, solutions in isohexane, no toluene

CCCCOc1ccc2c(c1)-c1cc(C)cc(C34CC5CC(CC(C5)C3)C4)c1[O][Zr]([CH3])([CH3])[O]c1c(cc(C)cc1C13CC4CC(CC(C4)C1)C3)-c1cc(OCCCC)ccc1-c1cccc-2n1 [Complex 3]
Solubility in isohexane [1]: 1.10 mM
Solubility in isohexane (wt %) [1]: 0.168 wt %

CCCCOc1ccc2c(c1)-c1cc(C(C)(C)C)cc(C34CC5CC(CC(C5)C3)C4)c1[O][Zr]([CH3])([CH3])[O]c1c(cc(C(C)(C)C)cc1C13CC4CC(CC(C4)C1)C3)-c1cc(OCCCC)ccc1-c1cccc-2n1 [Complex 4]
Solubility in isohexane [1]: 15.7 mM
Solubility in isohexane (wt %) [1]: 2.55 wt %
Activity (g P/mmol cat · hr) [2, 3]: 2,448,000 g P/mmol cat · hr and 2,638,800 g P/mmol cat · hr and 1,007,059 g P/mmol cat · hr

CCCCCCCCOc1ccc2c(c1)-c1cc(C(C)(C)C)cc(C34CC5CC(CC(C5)C3)C4)c1[O][Zr]([CH3])([CH3])[O]c1c(cc(C(C)(C)C)cc1C13CC4CC(CC(C4)C1)C3)-c1cc(OCCCCCCCC)ccc1-c1cccc-2n1 [Complex 5]
Activity (g P/mmol cat · hr) ([2]; Activator A (N,N-dimethylanilinium tetrakis(pentafluorophenyl)borate), T 100 °C, catalyst and activator solutions in toluene): 3,376,421 g P/mmol cat · hr and 2,318,545 g P/mmol cat · hr and 2,591,040 g P/mmol cat · hr
Activity (g P/mmol cat · hr) [2, 4]: 6,656,571 g P/mmol cat · hr and 5,844,800 g P/mmol cat · hr and 5,664,000 g P/mmol cat · hr
Activity (g P/mmol cat · hr) [2, 3]: 2,700,444 g P/mmol cat · hr and 1,772,923 g P/mmol cat · hr and 2,571,840 g P/mmol cat · hr

CCCCCCCCCCCCOc1ccc2c(c1)-c1cc(C(C)(C)C)cc(C34CC5CC(CC(C5)C3)C4)c1[O][Zr]([CH3])([CH3])[O]c1c(cc(C(C)(C)C)cc1C13CC4CC(CC(C4)C1)C3)-c1cc(OCCCCCCCCCCCC)ccc1-c1cccc-2n1 [Complex 6]
Activity (g P/mmol cat · hr) [2, 4]: 1,713,412 g P/mmol cat · hr and 1,940,093 g P/mmol cat · hr and 1,864,216 g P/mmol cat · hr

dimethylzirconium[2′,2′″-(pyridine-2,6-diyl)bis(3-adamantan-1-yl)-5-(tert-butyl)-[1,1′-biphenyl]-2-olate)] [Complex 2, reference compound]
Activity (g P/mmol cat · hr) [2, 4]: 2,069,268 g P/mmol cat · hr and 4,201,200 g P/mmol cat · hr and 3,074,182 g P/mmol cat · hr
Activity (g P/mmol cat · hr) [2, 3]: 2,345,000 g P/mmol cat · hr and 2,682,545 g P/mmol cat · hr and 2,225,032 g P/mmol cat · hr
